Laboratory results as given in patent US20160115540A1, “PRODRUGS AND DRUGS” (Biogen MA Inc., priority 2013, published 2016).
Counter-ions that a name gives are not always drawn.

Tested on: spleen
Assay: Transcriptional profiling, chronic dosing, EAE mice: spleen
Assay type: in vivo
Conditions: for Number of differentially expressed genes identified: Spleen: EAE, Chronic Dosing
Method: 2011 March 134(Pt3): 678-92. […] FIG. 17 depicts exemplary immunophenotyping panels used to analyze various immune cell populations (e.g., T cells, T regulatory cells, NK cells, B cells, myeloid cells). […] Animals were exposed to CO2 and whole blood collected via cardiac puncture. Two 100 μl aliquots of whole blood were collected in 1.5 mL microcentrifuge tubes and snap frozen in liquid nitrogen. Peripheral (liver, spleen, kidney and jejunum) and CNS brain (cerebellum, hippocampus, striatum and cortex) tissues were harvested and snap frozen in liquid nitrogen, with special care taken to collect tissues of similar size and from the same location. All samples were stored at -80° C. until RNA extraction was conducted. For RNA preparation, frozen tissues were placed in 2 mL RNAse-free 96-well blocks with 1.5 mL QIAzol Lysis Reagent (QIAgen) and a 3.2 mm stainless steel bead (BioSpec Products, Bartlesville, Okla.). Tissues were disrupted for four cycles of 45 seconds in a Mini-Beadbeater (Biospec Products). RNA was extracted in chloroform and the aqueous phase was mixed with an equal volume of 70% ethanol. Extracted RNA was applied to RNeasy 96 plates and purified by the spin method according to the manufacturer's protocol (RNeasy 96 Universal Tissue Protocol, QIAgen, Hilden Germany). […] Washing and staining of the hybridized arrays were completed as described in the GeneChip Expression analysis technical manual for HT plate arrays using the Genechip® Array Station (Affymetrix, Santa Clara, Calif.) with modifications as described in […] et al. The processed GeneChip® plate arrays were scanned using GeneTitan scanner (Affymetrix, Santa Clara, Calif.). Affymetrix scans were subject to quality control (QC) measures. These tests included a visual inspection of the distribution of raw signal intensities and an assessment of RNA degradation, relative log expression (RLE), and normalized unscaled standard error (NUSE). All sample scans that passed these QC metrics were included in the analysis. All CEL files were subjected to GC-content-based Robust Multi-array Average (GCRMA) normalization (version 2.20.0) (Irizarry R A, et al. Nucleic Acids Res 2003; 31:e15; Li C, et al. Genome Biol 2001; 2:[…]0032). […] Stat Appl Genet Mol Biol 2004; 3:Article3). […] Springer Science+Business Media 2005).

## COC(=O)/C=C/C(=O)OC [DMF, dimethyl fumarate]
100 mpk DMF-vs-90 mpk MMF, 7 h after last dosing
  Number of differentially expressed genes identified: Spleen: 3
100 mpk DMF-vs-90 mpk MMF, 12 h after last dosing
  Number of differentially expressed genes identified: Spleen: 4
100 mpk DMF-vs-Vehicle, 7 h after last dosing
  Number of differentially expressed genes identified: Spleen: 12
100 mpk DMF-vs-Vehicle, 12 h after last dosing
  Number of differentially expressed genes identified: Spleen: 7
spleen, 100DMF-vs-90MMF, 7 h
  FC Ear1 (1421802_PM_at): −3.57
  FC Epx (1449136_PM_at): −3.20
  FC Prg2 (1422873_PM_at): −2.10
spleen, 100DMF-vs-90MMF, 12 h
  FC Angptl4 (1417130_PM_s_at): 1.97
  FC Zbtb16 (1419874_PM_x_at): 1.95
  FC Zbtb16 (1442025_PM_a_at): 2.29
  FC Zbtb16 (1442026_PM_at): 2.36
spleen, 100DMF-vs-Veh, 7 h
  FC 4930519L02Rik (1454269_PM_s_at): 1.66
  FC Adamts4 (1455965_PM_at): −1.51
  FC Aox1 (1419435_PM_at): 1.88
  FC Gsta3 (1423436_PM_at): 2.02
  FC Gsta3 (1423437_PM_at): 1.94
  FC LOC677317 /// Me1 1416632_PM_at: 1.61
  FC Nqo1 (1423627_PM_at): 2.27
  FC Pir (1429001_PM_at): 2.74
  FC Srxn1 (1419942_PM_at): 2.31
  FC Srxn1 (1426875_PM_s_at): 2.29
  FC Srxn1 (1451680_PM_at): 2.14
  FC Steap4 (1425829_PM_a_at): −1.88
spleen, 100DMF-vs-Veh, 12 h
  FC Dbp (1418174_PM_at): −1.65
  FC Dbp (1438211_PM_s_at): −1.78
  FC Ighg (1424631_PM_a_at): −1.52
  FC Srxn1 (1419942_PM_at): 1.85
  FC Srxn1 (1426875_PM_s_at): 1.90
  FC Srxn1 (1451680_PM_at): 1.60
spleen, chronically dosed EAE mice, 12 h after final dosing
  Zbtb16 transcript signal, DMF-treated compared to MMF-treated animals: increased signal

## COC(=O)/C=C/C(=O)O [MMF, monomethyl fumarate]
90 mpk MMF-vs-Vehicle, 7 h after last dosing
  Number of differentially expressed genes identified: Spleen: 23
90 mpk MMF-vs-Vehicle, 12 h after last dosing
  Number of differentially expressed genes identified: Spleen: 9
spleen, 100MMF-vs-Veh, 7 h
  FC 1441413_PM_at (no gene symbol): 1.54
  FC 1451626_PM_x_at (no gene symbol): 1.55
  FC 2810037O22Rik (1428866_PM_at): −1.88
  FC 4930519L02Rik (1454269_PM_s_at): 1.78
  FC Aox1 (1419435_PM_at): 1.91
  FC Cacnb3 (1448656_PM_at): −1.58
  FC Figf /// LOC100047108 (1438953_PM_at): 1.57
  FC Gsta3 (1423436_PM_at): 1.74
  FC Gsta3 (1423437_PM_at): 1.61
  FC Higd1c /// Mettl7a1 /// Mettl7a2 1434150_PM_a_at: 1.57
  FC Kcnh1 (1435994_PM_at): −1.60
  FC Lmcd1 1424596_PM_s_at: −1.74
  FC Mmp16 (1437568_PM_at): −1.56
  FC Nqo1 (1423627_PM_at): 2.35
  FC Pdk4 (1417273_PM_at): 1.68
  FC Pir (1429001_PM_at): 2.67
  FC Socs3 (1416576_PM_at): −1.79
  FC Srxn1 (1419942_PM_at): 2.29
  FC Srxn1 (1426875_PM_s_at): 2.26
  FC Srxn1 (1451680_PM_at): 2.05
  FC Steap4 (1425829_PM_a_at): −1.91
  FC Steap4 (1460197_PM_a_at): −2.48
  FC Txnrd1 (1424486_PM_a_at): 1.69
spleen, 100MMF-vs-Veh, 12 h
  FC 2810037O22Rik (1428866_PM_at): −1.55
  FC Dbp (1418174_PM_at): −1.85
  FC Dbp (1438211_PM_s_at): −1.90
  FC Dclre1a (1432097_PM_a_at): 1.56
  FC Nqo1 (1423627_PM_at): 2.05
  FC Nr1d1 (1426464_PM_at): −1.76
  FC Nr1d2 (1416958_PM_at): −1.53
  FC Srxn1 (1419942_PM_at): 1.73
  FC Srxn1 (1426875_PM_s_at): 1.75
